Test results: patent US11103488B2, “Methods of treating autoimmune, respiratory and inflammatory disorders by inhalation of roflumilast N-oxide” (Incozen Therapeutics Pvt. Ltd., priority 2013, dated 2021)
Like-named read-outs stand apart in the source and are kept apart here.

Legend:
[1] = Lung microsome metabolic stability, rat; assay type: in vitro ADME; conditions: rat lung microsomes, 1 μM test item, 60 minutes, NADPH
Experimental: (§1) Metabolic stability studies were conducted using rat, dog and human lung microsomes. The protocol for the studies with rat, dog, and human lung microsomes (from Xenotech, USA) is provided below.
(§2) 0.4 mg protein was preincubated with 2 mM NADPH (cofactor) in phosphate buffer (pH˜7.4) for 15 minutes at […] and then added with 1 μM test item and incubated further for 60 minutes in triplicate. The reaction mixture was terminated with methanol containing an internal standard and centrifuged further to analyze the test item remaining in the supernatant by LC-MS/MS. The percent parent compound remaining was calculated in comparison with similar samples terminated at 0 minutes.

[2] = Lung microsome metabolic stability, dog; assay type: in vitro ADME; conditions: dog lung microsomes, 1 μM test item, 60 minutes, NADPH
Experimental: as §1, §2

[3] = 7-day repeat dose safety study; assay type: in vivo, Wistar Rats
Experimental: In order to determine the safety of roflumilast N-oxide by inhalation compared to roflumilast by oral administration, a 7- and 14-day repeat dose safety study was conducted according to the protocol given in Table 5 below.

[4] = Pulmonary kinetics by intratracheal route, single dose; assay type: in vivo, Wistar rats; conditions: single dose 1 mg/kg IT
Experimental: (§3) Male and female Wistar rats were weighed and randomized for groups for various time points. Roflumilast N-oxide was prepared as a suspension in a suitable vehicle for intratracheal administration. For intratracheal dosing, animals were anesthetized with ketamine (50 mg/kg; i.p.) and roflumilast N-oxide was administered via an Intratracheal Microsprayer® Aerosolizer for Rat with a 0.5 ml glass syringe (Model IA-1B-R-GL500) (Penn Century, US). A volume level of 0.5 ml/kg was administered into the airway system of the rat at a dose of 1.0 mg/kg for the single dose and multiple dose study. The animals were kept under normal regular diet conditions and rat chew diet was provided ad libitum throughout the study. The blood and lung samples (all collections each of 150 μl from each animal) were collected according to the sampling schedule. Blood samples were collected from orbital sinus into the microfuge tubes containing dipotassium EDTA as an anticoagulant. Blood samples were centrifuged immediately with a speed of 1000 g for 10 minutes at 4° C. and separated plasma samples were frozen at below −80° C. and stored until analysis. The plasma and lung concentrations of roflumilast N-oxide in all samples were analyzed by LC-MS/MS (using X-Calibur 2.0.7 software) as per the established method. The samples below the lower limit of quantification (LOQ) were mentioned as (BLQ) below level of quantification in raw data and the results were tabulated accordingly. Pharmacokinetic parameters Cmax, AUC0-t, AUC0-∞, Tmax, t1/2, Kel, VZ, and CLZ were estimated for the above concentrations using WinNonlin (Phoenix 6.1 software) and the results were tabulated. Pharmacokinetic parameters in plasma were calculated from concentration data as ng/ml. Cmax and AUC values were reported in terms of ng/ml and ng·h/ml, respectively.
(§4) Pharmacokinetic parameters in the lungs were calculated from concentration data as ng/g. Cmax and AUC values were reported in terms of ng/g and ng·h/g, respectively. The lung to plasma concentration ratio was calculated by assuming equal to 1 the plasma density. The time-mean plasma concentration plots for roflumilast N-oxide were done using Graph pad Prism 5.02 software.

[5] = Pulmonary kinetics by intratracheal route, multiple dose (7 days); assay type: in vivo, Wistar rats; conditions: 1 mg/kg IT for 7 days; for Tmax / half-life / AUC(0-inf) / AUC(0-t) / Cmax: 1 mg/kg
Experimental: as §3, §4

[6] = Lung microsome metabolic stability, human; assay type: in vitro ADME; conditions: 1 μM test item, 60 minutes, NADPH
Experimental: as §1, §2

[7] = test system: neutrophil infiltration (LPS-induced neutrophilia in BALF); assay: Lipopolysaccharide (LPS) induced pulmonary neutrophilia; assay type: in vivo, female Sprague-Dawley rat; conditions: for ED50: Rattus norvegicus, Neutrophil, inhaled or nasal; for Percent inhibition in neutrophil infiltration: intratracheal dry powder, 30 minutes before LPS
Experimental: Roflumilast was prepared as a suspension in a suitable vehicle for oral administration. For intratracheal administration, roflumilast or roflumilast N-oxide was prepared as a dry powder mixture and administered by using a dry powder Insufflator (Penn-Century, USA) Animals were anaesthetized with ketamine and LPS solution was administered intratracheally one hour after roflumilast (at a dose of 0.3, 1, 3, and 10 mg/kg orally), or 30 minutes after roflumilast (at a dose of 10, 30 and 100 μg/kg i.t) or roflumilast N-oxide administration (at a dose of 10, 30 and 100 μg/kg, i.t). 6 hours after LPS instillation, animals were exsanguinated under anaesthesia, and then trachea were cannulated and the lungs were lavaged with 5-ml aliquots of heparinised PBS (1 unit/ml) four times through tracheal cannula (total volume 20 ml). BAL (bronchoalveolar lavage) fluid was stored at 2-8° C. until assayed for total cell and differential leukocyte count. Bronchioalveolar fluid was centrifuged (500×g for 10 minutes) and the resulting cell pellet was resuspended in 0.5 ml of heparinized saline. The total number of white blood cells were determined in BAL fluid using a blood cell counter and were adjusted to 1×10^6 cell/ml. Differential cell count was calculated manually. One hundred microliters of the cell suspension was centrifuged using cytospin 3 to prepare a cell smear. The cell smear was stained with a blood staining solution for differentiation and slides were microscopically observed to identify eosinophil according to their morphological characteristics. The number of each cell type among 300 white blood cells in the cell smear was determined and expressed as a percentage. The total number of neutrophils in each BAL fluid was calculated.
Roflumilast and roflumilast N-oxide were administered intratracheally (i.t) at doses of 100, 30, and 10 μg/kg as 1:200; 1:500; and 1:1000 drug:lactose blends, respectively.

O=C(Nc1c(Cl)c[n+]([O-])cc1Cl)c1ccc(OC(F)F)c(OCC2CC2)c1 [Roflumilast N-oxide]
Percent Parent Compound Remaining, Rat [1]: 100.0% | Percent Parent Compound Remaining, Dog [2]: 98.3% | MORTALITY ([3]; Intratracheal, 1000 ug/kg/day, 7 days): No Mortality | Therapeutic window (safe dose relative to ED50) ([3]; intratracheal 1000 μg/kg versus ED50 of 27 μg/kg): more than 37 fold | Overall safety in repeat dose study ([3]; intratracheal administration, 1000 μg/kg): found to be safe | Tmax ([4]; both sexes, Wistar, rat, inhaled or intranasal, lung, read-out: Tmax, Lung, N-Oxide): 15 min | half-life ([4]; both sexes, Wistar, rat, inhaled or intranasal, lung, read-out: t1/2, Lung, N-Oxide (converted)): 152 min | AUC(0-t) ([4]; both sexes, Wistar, rat, inhaled or intranasal, plasma, read-out: AUC0-t, Plasma, N-Oxide): 4160 ng·h/mL | Cmax ([4]; both sexes, Wistar, rat, inhaled or intranasal, plasma, read-out: Cmax, Plasma, N-Oxide): 530 ng/mL | Tmax ([4]; both sexes, Wistar, rat, inhaled or intranasal, plasma, read-out: Tmax, Plasma, N-Oxide): 15 min | half-life ([4]; both sexes, Wistar, rat, inhaled or intranasal, plasma, read-out: t1/2, Plasma, N-Oxide (converted)): 326 min | AUC0-inf, Lung, N-Oxide ([4]; lung): 47960 ng·h/g | AUC0-t, Lung, N-Oxide ([4]; lung): 47880 ng·h/g | Cmax, Lung, N-Oxide ([4]; lung): 26350 ng/g | AUC0-inf, Lung, Day-1, N-Oxide ([5]; lung, Day-1): 47.96 µg·h/g | AUC0-t, Lung, Day-1, N-Oxide ([5]; lung, Day-1): 47.88 µg·h/g | Cmax, Lung, Day-1, N-Oxide ([5]; lung, Day-1): 26.35 µg/g | AUC0-inf, Lung, Day-7, N-Oxide ([5]; lung, Day-7): 18.04 µg·h/g | AUC0-t, Lung, Day-7, N-Oxide ([5]; lung, Day-7): 17.96 µg·h/g | AUCtau, Lung, Day-7, N-Oxide ([5]; lung, Day-7): 18.51 µg·h/g | Cavg, Lung, Day-7, N-Oxide ([5]; lung, Day-7): 0.77 µg/g | Cmax, Lung, Day-7, N-Oxide ([5]; lung, Day-7): 23.15 µg/g | Cmin, Lung, Day-7, N-Oxide ([5]; lung, Day-7): 0.00 µg/g | Cavg, Plasma, Day-7, N-Oxide ([5]; plasma, Day-7): 120 ng/mL | Cmin, Plasma, Day-7, N-Oxide ([5]; plasma, Day-7): 0 ng/mL | AUC ([5]; both sexes, Wistar, rat, inhaled or intranasal, plasma, Day-7, read-out: AUCtau, Plasma, Day-7, N-Oxide): 2810 ng·h/mL | Tmax ([5]; both sexes, Wistar, rat, lung, inhaled or intranasal, lung, Day-1, read-out: Tmax, Lung, Day-1, N-Oxide): 15 min | half-life ([5]; both sexes, Wistar, rat, lung, inhaled or intranasal, lung, Day-1, read-out: t1/2, Lung, Day-1, N-Oxide (converted)): 152 min | Tmax ([5]; both sexes, Wistar, rat, lung, inhaled or intranasal, lung, Day-7, read-out: Tmax, Lung, Day-7, N-Oxide): 15 min | half-life ([5]; both sexes, Wistar, rat, lung, inhaled or intranasal, lung, Day-7, read-out: t1/2, Lung, Day-7, N-Oxide (converted)): 48.6 min | AUC(0-inf) ([5]; both sexes, Wistar, rat, plasma, inhaled or intranasal, plasma, Day-1, read-out: AUC0-inf, Plasma, Day-1, N-Oxide): 4350 ng·h/mL | AUC(0-t) ([5]; both sexes, Wistar, rat, plasma, inhaled or intranasal, plasma, Day-1, read-out: AUC0-t, Plasma, Day-1, N-Oxide): 4160 ng·h/mL | Cmax ([5]; both sexes, Wistar, rat, plasma, inhaled or intranasal, plasma, Day-1, read-out: Cmax, Plasma, Day-1, N-Oxide): 530 ng/mL | Tmax ([5]; both sexes, Wistar, rat, plasma, inhaled or intranasal, plasma, Day-1, read-out: Tmax, Plasma, Day-1, N-Oxide): 15 min | half-life ([5]; both sexes, Wistar, rat, plasma, inhaled or intranasal, plasma, Day-1, read-out: t1/2, Plasma, Day-1, N-Oxide (converted)): 326 min | AUC(0-inf) ([5]; both sexes, Wistar, rat, plasma, inhaled or intranasal, plasma, Day-7, read-out: AUC0-inf, Plasma, Day-7, N-Oxide): 2390 ng·h/mL | AUC(0-t) ([5]; both sexes, Wistar, rat, plasma, inhaled or intranasal, plasma, Day-7, read-out: AUC0-t, Plasma, Day-7, N-Oxide): 2250 ng·h/mL | Cmax ([5]; both sexes, Wistar, rat, plasma, inhaled or intranasal, plasma, Day-7, read-out: Cmax, Plasma, Day-7, N-Oxide): 560 ng/mL | Tmax ([5]; both sexes, Wistar, rat, plasma, inhaled or intranasal, plasma, Day-7, read-out: Tmax, Plasma, Day-7, N-Oxide): 60 min | half-life ([5]; both sexes, Wistar, rat, plasma, inhaled or intranasal, plasma, Day-7, read-out: t1/2, Plasma, Day-7, N-Oxide (converted)): 91.8 min | Percent Parent Compound Remaining, Human Non Smoker ([6]; human non smoker lung microsomes): 91.5% | Percent Parent Compound Remaining, Human Smoker ([6]; human smoker lung microsomes): 99.3% | ED50 ([7]; Intratracheal (Table 5), read-out: ED50 in Lipopolysaccharide induced pulmonary neutrophilia in female Sprague-Dawley rat model): 0.027 mg/kg | ED50 ([7]; intratracheal administration, read-out: 50% inhibition (ED50) dose, neutrophil infiltration): 0.027 mg/kg | Percent inhibition in neutrophil infiltration ([7]; 10 μg/kg): 37.52% | Percent inhibition in neutrophil infiltration ([7]; 30 μg/kg): 49.66% | Percent inhibition in neutrophil infiltration ([7]; 100 μg/kg): 69.48%
